Assay results taken from patent US9938335B2, “Glucagon and GLP-1 co-agonist compounds” (Eli Lilly and Company, priority 2015, dated 2018).
Marks after values point to notes of the source that are not given here.

Columns and labels:
[1] = biological target: T1, hGLP-1-R (Homo sapiens, UniProt P43220); assay: Functional hGLP-1-R assay (cAMP HTRF, HEK-293 clonal cell line); type: cell-based; design: expressed in transfected cells; host or cells: HEK-293 clonal cell line over-expressing the receptor; conditions: for Emax: HEK293; for EC50: cAMP, 60 minute incubation, 0.25% FBS, 0.05% BSA, geometric mean, read-out: Human GLP-1-R EC50, nM ± SEM (n)
Protocol: After a 60 minute incubation at room temperature, the resulting increase in intracellular cAMP (adenosine 3′,5′-cyclic monophosphate) is quantitatively determined using the CisBio cAMP Dynamic 2 HTRF Assay Kit (62AM4PEJ). cAMP levels within the cell are detected by adding the cAMP-d2 conjugate in cell lysis buffer (20 μl) followed by the antibody anti-cAMP-Eu^3+-Cryptate, also in cell lysis buffer (20 μl).
A relative EC50 value and percent top (Emax) are derived by non-linear regression analysis using the percent maximal response vs. the concentration of peptide added, fitted to a four-parameter logistic equation (Genedata Screener®).
Means for EC50 are expressed as Geometric means±standard error of the mean (SEM) with the number of replicates (n) indicated in parenthesis. Means for Emax are expressed as the arithmetic mean±standard error. ND signifies that agonist activity was not detected.

[2] = biological target: T1, hGLP-1-R; assay: hGLP-1R Binding Assay (SPA radioligand competition, 293HEK membranes); design: expressed in transfected cells; host or cells: 293HEK, stably transfected with plasmid phD, Hygromycin-selected; crude plasma membranes; conditions: read-out: Ki, nM ± SEM at the hGLP-1-R
[3] = tested on: DIO mice (C57BL/6); assay: Acute treatment in DIO mice (PCSK9, FGF-21, cholesterol); type: in vivo, mouse; conditions: 30 nmol/kg sc, 16 hours post dose
Protocol: In order to investigate metabolic pathways involved with the treatment of compounds of the present invention independent of weight loss, compounds are tested in DIO mice (C57BL/6) acutely. The mice used are three to four months old on a high fat diet for at least 4 weeks. Animals are individually housed in a temperature-controlled (24° C.) facility with a 12 hour light/dark cycle (lights on 6:00), and free access to food and water. Vehicle or testing compounds were administered to mice by subcutaneous injection at 16:00 the day before the study day. Animals were sacrificed 16 hours later to collect blood via cardia puncture. Statistics are analyzed using ANOVA with Dunnett's comparison for JMP-6. Significance is denoted at p≤0.05 vs vehicle.
Food intake was decreased to a similar level in all treatment groups, which may indicate that changes in cholesterol, PCSK9 and FGF-21 are food-intake independent.

[4] = tested on: DIO mice (C57BL/6); assay: Glycemic control in DIO mice; type: in vivo, mouse; conditions: for 44 hours Glucose AUC (% of Vehicle): OGTT 44 hours post-injection; for 44 hours Glucose AUC (% of Vehicle) / 78 hours Glucose AUC (% of Vehicle): 25 nmol/kg sc; for 78 hours Glucose AUC (% of Vehicle): OGTT 78 hours post-injection; for glucose excursions post an oral glucose challenge: OGTTs at 44 and 78 hours post injection, 25 nmol/kg; for Blood glucose (mg/dL) post-injection, Mean: male DIO mice, 25 nmol/kg sc once
Protocol: Five to six months old male DIO mice (C57BL/6) from Taconic Biosciences are used in this study. Animals are individually housed in a temperature-controlled (24° C.) facility with a 12 hour light/dark cycle (lights on 6:00), and free access to food and water. After two weeks acclimation to the facility, the mice are randomized to treatment groups (n=7/group) based on their body weight and blood glucose. Mice are injected subcutaneously once with vehicle or compounds (25 nmol/kg). Blood glucose is monitored 2 and 8 hours post-injection and then once a day at 08:00 for 4 days. OGTTs are performed at 44 and 78 hours post the peptide injection. Statistics are analyzed using ANOVA with Dunnett's comparison by JMP 6. Significance is denoted at p≤0.05 vs vehicle.

[5] = biological target: hGcg-R (Homo sapiens, UniProt P47871); assay: hGcg-R Binding Assay (SPA radioligand competition, 293HEK membranes); conditions: read-out: Ki, nM ± SEM at the hGcg-R
[6] = Viscosity (Rheosense mVroc Viscometer); type: physicochemical; conditions: approximately 10 mg/mL peptide in 10 mM Tris + 3 mg/mL m-cresol at pH 8.0; 25° C.; shear rate 1934 s^−1
Protocol: Viscosity of compounds of the present invention is measured in a Rheosense mVroc Viscometer with the following settings:
(a) Syringe size: 500 μL syringe
(b) Flow Rate: 100 μL/min flow rate
(c) Average Temperature: 25° C.
(d) Shear Rate: 1934 s^−1
Dry powder (compound) is weighed out, dissolved in water as a cloudy precipitate, and titrated to approximately pH 8.0 with 1N NaOH. The solution is sonicated and swirled by hand until peptide is in solution. Samples are sterile filtered (0.22 μm PVDF filters). Samples are then analyzed by UV-Vis to assess stock solution concentrations. Solutions are diluted to final concentration using 3× m-cresol in 10 mM Tris pH 8.0 buffer to final concentrations of approximately 10 mg/mL peptide by weight in 10 mM Tris+3 mg/mL m-cresol at pH 8.0. Samples were filtered through 0.22 μm filters immediately prior to viscosity analysis. 25 μL of sample are removed to verify concentration by RP-HPLC before and after analysis.
Water and buffer control samples are measured before and after each sample is analyzed. The instrument is washed with buffer (3×) in between analysis of each sample. The samples are loaded into individual syringes and analyzed. The first measurement is not included in the final calculation to allow for equilibration with the system. Samples are then analyzed in triplicate (n=3).
The viscosity of Compounds 1-4 was measured essentially as described in this assay.

[7] = tested on: DIO mice (C57BL/6); assay: Chronic treatment in DIO mice (body weight, fat, food intake); type: in vivo, mouse
Protocol: The effects on food intake and body weight/fat are evaluated in DIO mice. Five to six months old DIO mice (C57BL/6) from Taconic Biosciences are used in this study. Animals are individually housed in a temperature-controlled (24° C.) facility with a 12 hour light/dark cycle (lights on 6:00), and free access to food and water. The mice are acclimated to the facility for two weeks. The day before the study start, fat mass is measured by nuclear magnetic resonance (NMR) using an Echo Medical System (Houston, Tex.) instrument. The mice are randomized to treatment groups (N=7/group) based on body weight and fat mass so each group had similar starting mean body weight and fat mass. […] SC injections are made on Day 1, 4, 7, 10, and 13. Body weight and food intake are measured right before each injection throughout the study. Percent changes in body weight are calculated as follows: […]
At the completion of the study, total fat mass is measured again by NMR. Statistics are analyzed using ANOVA with Dunnett's comparison by JMP 6. Significance is denoted at p≤0.05 vs. vehicle.

[8] = 15 nmol/kg sc every three days for 15 days
[9] = 30 nmol/kg sc every three days for 15 days

T1 sequence (P43220 24-463): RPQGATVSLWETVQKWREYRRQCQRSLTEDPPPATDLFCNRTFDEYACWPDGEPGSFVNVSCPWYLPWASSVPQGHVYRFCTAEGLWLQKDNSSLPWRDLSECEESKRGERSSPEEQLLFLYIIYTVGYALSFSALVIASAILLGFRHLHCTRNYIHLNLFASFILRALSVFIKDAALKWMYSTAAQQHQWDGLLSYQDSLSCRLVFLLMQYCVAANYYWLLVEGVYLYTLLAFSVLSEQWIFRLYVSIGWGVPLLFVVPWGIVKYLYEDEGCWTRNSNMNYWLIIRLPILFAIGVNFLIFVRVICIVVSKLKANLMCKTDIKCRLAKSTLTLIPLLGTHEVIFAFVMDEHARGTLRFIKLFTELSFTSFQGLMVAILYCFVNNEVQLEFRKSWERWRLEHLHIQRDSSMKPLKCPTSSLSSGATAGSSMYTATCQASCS
Chain of hGcg-R (P47871 26-477): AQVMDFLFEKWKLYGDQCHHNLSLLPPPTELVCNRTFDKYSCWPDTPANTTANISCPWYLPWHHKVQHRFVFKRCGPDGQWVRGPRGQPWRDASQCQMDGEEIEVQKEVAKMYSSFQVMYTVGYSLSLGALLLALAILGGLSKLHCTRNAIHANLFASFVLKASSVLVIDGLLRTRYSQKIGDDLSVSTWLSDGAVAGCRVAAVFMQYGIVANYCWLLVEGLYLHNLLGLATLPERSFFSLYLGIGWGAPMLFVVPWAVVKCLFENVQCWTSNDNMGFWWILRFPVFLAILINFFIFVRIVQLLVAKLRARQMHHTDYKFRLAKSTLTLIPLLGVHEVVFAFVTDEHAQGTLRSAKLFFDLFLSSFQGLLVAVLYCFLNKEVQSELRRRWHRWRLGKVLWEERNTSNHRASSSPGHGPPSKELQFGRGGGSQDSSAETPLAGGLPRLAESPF

Compound: CC(C)C[C@H](NC(=O)[C@H](CC(C)C)NC(=O)[C@H](Cc1c[nH]c2ccccc12)NC(=O)[C@H](CCC(=O)O)NC(=O)[C@@H](NC(=O)[C@H](Cc1ccccc1)NC(=O)[C@H](CCC(=O)O)NC(=O)[C@H](CCCCNC(=O)COCCOCCNC(=O)COCCOCCNC(=O)CC[C@H](NC(=O)CCCCCCCCCCCCCCCCC(=O)O)C(=O)O)NC(=O)[C@H](C)NC(=O)[C@H](CCCCN)NC(=O)[C@H](CCCCN)NC(=O)[C@H](CCC(=O)O)NC(=O)[C@H](CC(=O)O)NC(=O)[C@H](CC(C)C)NC(=O)[C@H](Cc1ccc(O)cc1)NC(=O)[C@H](CCCCN)NC(=O)[C@H](CO)NC(=O)[C@H](Cc1ccc(O)cc1)NC(=O)[C@H](CC(=O)O)NC(=O)[C@H](CO)NC(=O)[C@@H](NC(=O)[C@H](Cc1ccccc1)NC(=O)[C@@H](NC(=O)CNC(=O)[C@H](CCC(N)=O)NC(=O)C(C)(C)NC(=O)[C@@H](N)Cc1c[nH]cn1)[C@@H](C)O)[C@@H](C)O)C(C)C)C(=O)N[C@@H](CCC(=O)O)C(=O)NCC(=O)NCC(=O)N1CCC[C@H]1C(=O)N[C@@H](CO)C(=O)N[C@@H](CO)C(=O)NCC(N)=O [Compound 1]
- Emax [1]: 104 ± 7%
- EC50 [1]: 23.9 ± 4.5 nM
- Ki [2]: 23 ± 5.5 nM
- Cholesterol (% of vehicle) [3]: 60.9* % of vehicle
- FGF-21 (% of vehicle) [3]: 1770* % of vehicle
- PCSK9 (% of vehicle) [3]: 14.6* % of vehicle
- 44 hours Glucose AUC (% of Vehicle) [4]: 42* % of Vehicle
- 78 hours Glucose AUC (% of Vehicle) [4]: 90 % of Vehicle
- glucose excursions post an oral glucose challenge [4]: lower glucose excursions post an oral glucose challenge at 44 hour
- Blood glucose (mg/dL) post-injection, Mean ([4]; 2 hours post-injection): 168.5 mg/dL
- Blood glucose (mg/dL) post-injection, Mean ([4]; 8 hours post-injection): 79.4 mg/dL
- Blood glucose (mg/dL) post-injection, Mean ([4]; 24 hours post-injection): 90.6 mg/dL
- Blood glucose (mg/dL) post-injection, Mean ([4]; 48 hours post-injection): 101.9 mg/dL
- Blood glucose (mg/dL) post-injection, Mean ([4]; 72 hours post-injection): 113.4 mg/dL
- Blood glucose (mg/dL) post-injection, Mean ([4]; 96 hours post-injection): 150.0 mg/dL
- Ki [5]: 14.6 ± 4.4 nM
- 500 μL syringe Viscosity [6]: 1.06 cP or mPa-s
- Body Fat (% change vs. vehicle from Day 1) [7, 8]: −49* %
- Body Weight (% change vs. vehicle from Day 1) [7, 8]: −19* %
- Body Fat (% change vs. vehicle from Day 1) [7, 9]: −66* %
- Body Weight (% change vs. vehicle from Day 1) [7, 9]: −29* %

Compound: CC(C)C[C@H](NC(=O)[C@H](CC(C)C)NC(=O)[C@H](Cc1c[nH]c2ccccc12)NC(=O)[C@H](CCC(=O)O)NC(=O)[C@@H](NC(=O)[C@H](Cc1ccccc1)NC(=O)[C@H](CCC(=O)O)NC(=O)[C@H](CCCCNC(=O)COCCOCCNC(=O)COCCOCCNC(=O)CC[C@H](NC(=O)CCCCCCCCCCCCCCCCCCC(=O)O)C(=O)O)NC(=O)[C@H](C)NC(=O)[C@H](CCCCN)NC(=O)[C@H](CCCCN)NC(=O)[C@H](CCC(=O)O)NC(=O)[C@H](CC(=O)O)NC(=O)[C@H](CC(C)C)NC(=O)[C@H](Cc1ccc(O)cc1)NC(=O)[C@H](CCCCN)NC(=O)[C@H](CO)NC(=O)[C@H](Cc1ccc(O)cc1)NC(=O)[C@H](CC(=O)O)NC(=O)[C@H](CO)NC(=O)[C@@H](NC(=O)[C@H](Cc1ccccc1)NC(=O)[C@@H](NC(=O)CNC(=O)[C@H](CCC(N)=O)NC(=O)C(C)(C)NC(=O)[C@@H](N)Cc1c[nH]cn1)[C@@H](C)O)[C@@H](C)O)C(C)C)C(=O)N[C@@H](CCC(=O)O)C(=O)NCC(=O)NCC(=O)N1CCC[C@H]1C(=O)N[C@@H](CO)C(=O)N[C@@H](CO)C(=O)NCC(N)=O [Compound 2]
- Emax [1]: 107 ± 7%
- EC50 [1]: 83.1 ± 16.8 nM
- Ki [2]: 28.6 ± 4.8 nM
- Cholesterol (% of vehicle) [3]: 80.6* % of vehicle
- FGF-21 (% of vehicle) [3]: 465* % of vehicle
- PCSK9 (% of vehicle) [3]: 12.8* % of vehicle
- 44 hours Glucose AUC (% of Vehicle) [4]: 39* % of Vehicle
- 78 hours Glucose AUC (% of Vehicle) [4]: 66* % of Vehicle
- glucose excursions post an oral glucose challenge [4]: lower glucose excursions post an oral glucose challenge at both time points
- Blood glucose (mg/dL) post-injection, Mean ([4]; 2 hours post-injection): 112.7 mg/dL
- Blood glucose (mg/dL) post-injection, Mean ([4]; 8 hours post-injection): 87.4 mg/dL
- Blood glucose (mg/dL) post-injection, Mean ([4]; 24 hours post-injection): 101.1 mg/dL
- Blood glucose (mg/dL) post-injection, Mean ([4]; 48 hours post-injection): 101.3 mg/dL
- Blood glucose (mg/dL) post-injection, Mean ([4]; 72 hours post-injection): 97.6 mg/dL
- Blood glucose (mg/dL) post-injection, Mean ([4]; 96 hours post-injection): 115.0 mg/dL
- Ki [5]: 17.7 ± 5 nM
- 500 μL syringe Viscosity [6]: 1.04 cP or mPa-s
- Body Fat (% change vs. vehicle from Day 1) [7, 8]: −43* %
- Body Weight (% change vs. vehicle from Day 1) [7, 8]: −19* %
- Body Fat (% change vs. vehicle from Day 1) [7, 9]: −70* %
- Body Weight (% change vs. vehicle from Day 1) [7, 9]: −33* %
